Here are results for twelve compounds from ChEMBL document CHEMBL5344481, “Design, synthesis and biological evaluation of rhein-piperazine-furanone hybrids as potential anticancer agents” (RSC Med Chem, 2024).

pIC50: −log10 of the molar value.

For one series, the system named is A549. Put plainly: Anticancer activity against human A549 cells incubated for 48 hrs by MTT assay. The series is classed as functional, cell-based. To be noted: A549, 48 h.
Series [1] in a line: Selectivity index, ratio of IC50 for human MCF-10A cells to IC50 for human SK-BR-3 cells. The series is classed as toxicity. To be noted: MCF-10A cells versus SK-BR-3 cells, read-out: Ratio IC50.
Series [2] has as its system NCI-H460. Put plainly: Induction of apoptosis in human NCI-H460 cells assessed as viable cells at 80 uM incubated for 48 hrs by Annexin V-FITC/PI staining based flow cytometry (reference value: 92.82 to 93.46 %). The series is classed as functional. The conditions noted are these: read-out: Activity.
The test system of another series is Huh-7. The series can be described thus: Anticancer activity against human Huh-7 cells incubated for 48 hrs by MTT assay. The series is classed as functional, cell-based. The conditions noted are these: Huh-7, 48 h. (In general: Tetrazolium dyes change colour on reduction, which living cells bring about.)
Series [3] relates to NCI-H460. The series can be described thus: Induction of apoptosis in human NCI-H460 cells assessed as […] cells at 8 uM incubated for 48 hrs by Annexin V-FITC/PI staining based flow cytometry (reference value: 4.31 to 4.76 %). Type of series: functional. A general note: Flow cytometry measures light scatter and fluorescence of single cells or particles in a stream.

A short description of series [4]: Selectivity index, ratio of IC50 for human WI-38 cells to IC50 for human H460 cells. The series is classed as toxicity. To be noted: WI-38 cells versus H460 cells, read-out: Ratio IC50.
In series [5] the test system is NCI-H460. The series can be described thus: Induction of apoptosis in human NCI-H460 cells assessed as total apoptotic cells at 80 uM incubated for 48 hrs by Annexin V-FITC/PI staining based flow cytometry (reference value: 6.85 %). The series is classed as functional.
Another series relates to HeLa. Put plainly: Anticancer activity against human HeLa cells incubated for 48 hrs by MTT assay. The series is classed as functional, cell-based.
Series [6] deals with NCI-H460. The series can be described thus: Induction of apoptosis in human NCI-H460 cells assessed as […] cells at 8 uM incubated for 48 hrs by Annexin V-FITC/PI staining based flow cytometry (reference value: 2.17 to 2.38 %). The series is classed as functional.
Series [7] deals with NCI-H460. The series can be described thus: Induction of apoptosis in human NCI-H460 cells assessed as necrotic cells at 80 uM incubated for 48 hrs by Annexin V-FITC/PI staining based flow cytometry (reference value: 0.02 to 0.06 %). The series is classed as functional.
For a further series, the system named is SK-BR-3. The series can be described thus: Anticancer activity against human SK-BR-3 cells incubated for 48 hrs by MTT assay. The series is classed as functional, cell-based. The conditions noted are these: SK-BR-3, 48 h.
The nature of series [8]: Cytotoxicity against human KGN cells incubated for 48 hrs by MTT assay. The series is classed as toxicity, cell-based.
A short description of series [9]: Cytotoxicity against human MCF-10A cells incubated for 48 hrs by MTT assay. Type of series: toxicity, cell-based.
In series [10] the test system is NCI-H460. The series can be described thus: Induction of apoptosis in human NCI-H460 cells assessed as total apoptotic cells at 0.8 uM incubated for 48 hrs by Annexin V-FITC/PI staining based flow cytometry (reference value: 6.85 %). The series is classed as functional.
The subject of series [11] is NCI-H460. Put plainly: Induction of apoptosis in human NCI-H460 cells assessed as […] cells at 0.8 uM incubated for 48 hrs by Annexin V-FITC/PI staining based flow cytometry (reference value: 2.17 to 2.38 %). Type of series: functional.
Series [12] relates to NCI-H460. Put plainly: Induction of apoptosis in human NCI-H460 cells assessed as total apoptotic cells at 8 uM incubated for 48 hrs by Annexin V-FITC/PI staining based flow cytometry (reference value: 6.85 %). Type of series: functional.
In series [13] the test system is NCI-H460. Put plainly: Induction of apoptosis in human NCI-H460 cells assessed as necrotic cells at 8 uM incubated for 48 hrs by Annexin V-FITC/PI staining based flow cytometry (reference value: 0.02 to 0.06 %). Type of series: functional.
Series [14] can be described thus: Cytotoxicity against human WI-38 cells incubated for 48 hrs by MTT assay. The series is classed as toxicity, cell-based.
A further series deals with 786-0. The series can be described thus: Anticancer activity against human 786-0 cells incubated for 48 hrs by MTT assay. To be noted: 786-0, 48 h. Type of series: functional, cell-based.
Series [15] in a line: Cytotoxicity against human HEK-293T cells incubated for 48 hrs by MTT assay. The series is classed as toxicity, cell-based.
A short description of series [16]: Selectivity index, ratio of IC50 for human WI-38 cells to IC50 for human Calu-1 cells. Type of series: toxicity. The conditions noted are these: WI-38 cells versus Calu-1 cells, read-out: Ratio IC50.
Series [17] deals with NCI-H460. The series can be described thus: Induction of apoptosis in human NCI-H460 cells assessed as […] cells at 80 uM incubated for 48 hrs by Annexin V-FITC/PI staining based flow cytometry (reference value: 2.17 to 2.38 %). The series is classed as functional.
Series [18] relates to NCI-H460. Put plainly: Induction of apoptosis in human NCI-H460 cells assessed as […] cells at 0.8 uM incubated for 48 hrs by Annexin V-FITC/PI staining based flow cytometry (reference value: 4.31 to 4.76 %). The series is classed as functional.
For another series, the system named is SK-OV-3. Put plainly: Anticancer activity against human SK-OV-3 cells incubated for 48 hrs by MTT assay. Type of series: functional, cell-based. To be noted: SK-OV-3, 48 h.
A short description of series [19]: Selectivity index, ratio of IC50 for human WI-38 cells to IC50 for human A549 cells. Type of series: toxicity. The conditions noted are these: WI-38 cells versus A549 cells, read-out: Ratio IC50.
The test system of series [20] is NCI-H460. The series can be described thus: Induction of apoptosis in human NCI-H460 cells assessed as necrotic cells at 0.8 uM incubated for 48 hrs by Annexin V-FITC/PI staining based flow cytometry (reference value: 0.02 to 0.06 %). The series is classed as functional.
The subject of a further series is HCT-116. Put plainly: Anticancer activity against human HCT-116 cells incubated for 48 hrs by MTT assay. Type of series: functional, cell-based. To be noted: HCT-116, 48 h.
For another series, the system named is Calu-1. Put plainly: Anticancer activity against human Calu-1 cells incubated for 48 hrs by MTT assay. Type of series: functional, cell-based. The conditions noted are these: Calu-1, 48 h.
The next series deals with PC-9. The series can be described thus: Anticancer activity against human PC-9 cells incubated for 48 hrs by MTT assay. The series is classed as functional, cell-based. To be noted: PC-9, 48 h.
Series [21] relates to NCI-H460. Put plainly: Induction of apoptosis in human NCI-H460 cells assessed as viable cells at 8 uM incubated for 48 hrs by Annexin V-FITC/PI staining based flow cytometry (reference value: 92.82 to 93.46 %). The series is classed as functional. The conditions noted are these: read-out: Activity.
Series [22] has as its system NCI-H460. The series can be described thus: Induction of apoptosis in human NCI-H460 cells assessed as viable cells at 0.8 uM incubated for 48 hrs by Annexin V-FITC/PI staining based flow cytometry (reference value: 92.82 to 93.46 %). Type of series: functional. The conditions noted are these: read-out: Activity.
In series [23] the test system is NCI-H460. Put plainly: Induction of apoptosis in human NCI-H460 cells assessed as […] cells at 80 uM incubated for 48 hrs by Annexin V-FITC/PI staining based flow cytometry (reference value: 4.31 to 4.76 %). Type of series: functional.
Series [24] has as its system NCI-H460. The series can be described thus: Anticancer activity against human NCI-H460 cells incubated for 48 hrs by MTT assay. The conditions noted are these: NCI-H460, 48 h. The series is classed as functional, cell-based.

On to `COC1OC(=O)C(Cl)=C1N1CCN(C(=O)c2cc(OC(C)=O)c3c(c2)C(=O)c2cccc(OC(C)=O)c2C3=O)CC1` (centres undefined), for which the pIC50 was 5.24 in the series on A549; 4.68 with Huh-7; 4.52 in the series with HeLa; 4.72 in the series with SK-BR-3; 4.68 with 786-0; 4.22 with SK-OV-3. Moreover, the pIC50 is 4.86 in the series with HCT-116, 4.81 in the series with Calu-1, 5.24 with PC-9 and 5.36 with NCI-H460 [24]. For the same compound, the selectivity ratio in [1] came out at 1; in [4] it was 16; in [16], 5; in series [19] it was 12. Moreover, in the series on NCI-H460 [2], the viability at 80 µM came to 42.6%. Besides, the Activity in the series on NCI-H460 [3] was found to be 18.14%; in the series on NCI-H460 [5], 56.57%; with NCI-H460 [6], 18.88%; with NCI-H460 [7], 0.07%; with NCI-H460 [10], 9.38%; in the series with NCI-H460 [11] it was 3.49%. The Activity with NCI-H460 [12] was 37.72%; in the series on NCI-H460 [13] it was 0.06%; with NCI-H460 [17], 29.91%; with NCI-H460 [18], 5.09%; in the series on NCI-H460 [20] it was 0.12%; in the series on NCI-H460 [23], 25.81%. In addition, the half-inhibitory concentration (IC50) at 48 h in series [8] turned out to be 76.4 µM; in series [9], 17 µM; in [14] it was 69.3 µM; in [15], 9.15 µM. In addition, in the series with NCI-H460 [21], the viability at 8 µM amounted to 61.1%. The viability at 0.8 µM in the series with NCI-H460 [22] came to 89.5%.
Consider `CC(=O)Oc1cccc2c1C(=O)c1c(OC(C)=O)cc(C(=O)N3CCN(C4=C(Br)C(=O)O[C@@H]4O[C@@H]4C[C@H](C)CC[C@H]4C(C)C)CC3)cc1C2=O`, for which the pIC50 in the series with A549 is 4.33. The IC50 at 48 h in [14] was determined as 24.9 µM. Besides, the selectivity ratio in series [19] worked out at 1.
In the series on A549, `CC(=O)Oc1cccc2c1C(=O)c1c(OC(C)=O)cc(C(=O)N3CCN(C4=C(Br)C(=O)OC4O[C@@H]4CC5CCC4(C)C5(C)C)CC3)cc1C2=O` (some centres undefined) showed a negative logarithm of the IC50 (pIC50) of 4.06. In [14], this compound showed a half-inhibitory concentration (IC50) at 48 h of 43.1 µM. In [19], the selectivity ratio came to 1.
`CC(C)[C@@H]1CC[C@@H](C)C[C@H]1O[C@H]1OC(=O)C(Cl)=C1N1CCN(C(=O)c2cc(O)c3c(c2)C(=O)c2cccc(O)c2C3=O)CC1` had a negative-log IC50 (pIC50) with A549 of 4.33. In series [14], this compound returned a 50% inhibitory concentration (IC50) at 48 h of 296 µM. Further, in series [19], the selectivity ratio stood at 6.
The matching figures for `CC(C)[C@@H]1CC[C@@H](C)C[C@H]1O[C@H]1OC(=O)C(Br)=C1N1CCN(C(=O)c2cc(O)c3c(c2)C(=O)c2cccc(O)c2C3=O)CC1`: 3.93, 167 µM and 1.
For `CC(=O)Oc1cccc2c1C(=O)c1c(OC(C)=O)cc(C(=O)N3CCN(C4=C(Cl)C(=O)OC4O[C@@H]4CC5CCC4(C)C5(C)C)CC3)cc1C2=O` (some centres undefined), in that order: 4.16, 34.7 µM and 1.
The matching figures for `CC1(C)C2CCC1(C)[C@H](OC1OC(=O)C(Cl)=C1N1CCN(C(=O)c3cc(O)c4c(c3)C(=O)c3cccc(O)c3C4=O)CC1)C2` (some centres undefined): 3.97, 173 µM and 2.
As to `COC1OC(=O)C(Br)=C1N1CCN(C(=O)c2cc(OC(C)=O)c3c(c2)C(=O)c2cccc(OC(C)=O)c2C3=O)CC1` (centres undefined), the pIC50 with A549 was 5.26. Further, the IC50 at 48 h in series [14] was 39.1 µM. The selectivity ratio in [19] stood at 7.
The matching figures for `CC(=O)Oc1cccc2c1C(=O)c1c(OC(C)=O)cc(C(=O)N3CCN(C4=C(Cl)C(=O)O[C@@H]4O[C@@H]4C[C@H](C)CC[C@H]4C(C)C)CC3)cc1C2=O`: 3.94, 66.3 µM and 1.
For `CC1(C)C2CCC1(C)[C@H](OC1OC(=O)C(Br)=C1N1CCN(C(=O)c3cc(O)c4c(c3)C(=O)c3cccc(O)c3C4=O)CC1)C2` (some centres undefined), in that order: 3.95, 152 µM and 1.
Compound `Nc1ccn([C@@H]2O[C@H](CO)[C@@H](O)[C@@H]2O)c(=O)n1` [CYTARABINE] showed an IC50 at 48 h in [14] of 493 µM. Moreover, the selectivity ratio in series [19] came out at 2.
Regarding `O=C(O)c1cc(O)c2c(c1)C(=O)c1cccc(O)c1C2=O` [RHEIN], the pIC50 in the series with A549 was 3.58. For the same compound, the selectivity ratio in [19] came to 1.

Usually pIC50 stands for the negative decadic logarithm of the IC50, by convention in mol/L. Low readings indicate a large IC50, high ones a small IC50. As usually defined, the IC50 is the point on the concentration scale where inhibition reaches its midpoint. A lower IC50 goes with inhibition by little substance.
